Measured values from US11046680B1, “Heteroaryl-substituted triazoles as APJ receptor agonists” (priority 2016, dated 2021).

Target: human APJ receptor (Homo sapiens (Human), UniProt P35414)
Assay: biochemical
Format: biochemical
Details: [35S]GTPγS binding, CHO membranes expressing human APJ receptor; read-out: Activity hAPJ SPA EC50 IP
Outline: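 GTPγS binding on membranes from CHO cells stably expressing FLAG-tagged human APJ, with optimized GDP, MgCl2 and NaCl; incubated 90 min at RT before imaging read-out.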

human APJ receptor, sequence (P35414 whole entry): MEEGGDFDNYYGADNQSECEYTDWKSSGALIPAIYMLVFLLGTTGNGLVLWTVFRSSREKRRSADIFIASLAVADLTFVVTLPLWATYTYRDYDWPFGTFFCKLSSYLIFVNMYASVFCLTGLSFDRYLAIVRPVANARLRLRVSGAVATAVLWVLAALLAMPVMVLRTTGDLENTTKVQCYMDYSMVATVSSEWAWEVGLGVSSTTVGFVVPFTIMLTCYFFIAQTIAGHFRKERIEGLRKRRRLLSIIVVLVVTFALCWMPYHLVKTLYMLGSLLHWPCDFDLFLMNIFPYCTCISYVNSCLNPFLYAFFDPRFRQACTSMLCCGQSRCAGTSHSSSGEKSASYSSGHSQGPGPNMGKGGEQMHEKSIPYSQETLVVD

COC[C@H](C)n1c(NS(=O)(=O)[C@@H](C)[C@H](C)c2ncc(Cl)cn2)nnc1-c1ccn(C)n1 [Example 533.0, (2S,3R)-3-(5-chloro-2-pyrimidinyl)-N-(4-((2S)-1-methoxy-2-propanyl)-5-(1-methyl-1H-pyrazol-3-yl)-4H-1,2,4-triazol-3-yl)-2-butanesulfonamide] gave an EC50 of 110 nM.

For COc1cccc(OC)c1-n1c(NS(=O)(=O)[C@H](C)Cc2ncc(F)cn2)nnc1-c1cnccn1 (single isomer, unassigned) [Example 29.0, (R)-N-(4-(2,6-dimethoxyphenyl)-5-(pyrazin-2-yl)-4H-1,2,4-triazol-3-yl)-1-(5-fluoropyrimidin-2-yl)propane-2-sulfonamide or (S)-N-(4-(2,6-dimethoxyphenyl)-5-(pyrazin-2-yl)-4H-1,2,4-triazol-3-yl)-1-(5-fluoropyrimidin-2-yl)propane-2-sulfonamide], the EC50 was 47 nM.

COC[C@@H](C)n1c(NS(=O)(=O)[C@@H](C)[C@H](OC)c2ncc(Cl)cn2)nnc1-c1ccn(C)n1 [Example 531.0, (1R,2S)-1-(5-chloro-2-pyrimidinyl)-1-methoxy-N-(4-((2R)-1-methoxy-2-propanyl)-5-(1-methyl-1H-pyrazol-3-yl)-4H-1,2,4-triazol-3-yl)-2-propanesulfonamide] showed an EC50 of 50 nM.

With COc1cccc(OC)c1-n1c(NS(=O)(=O)CCc2ncc(F)cn2)nnc1-c1nc(C(C)C)cs1 [Example 96.0, N-(4-(2,6-dimethoxyphenyl)-5-(4-isopropylthiazol-2-yl)-4H-1,2,4-triazol-3-yl)-2-(5-fluoropyrimidin-2-yl)ethanesulfonamide] the EC50 was 7 nM.

In the case of Cc1cnc([C@@H](C)[C@H](C)S(=O)(=O)Nc2nnc(-c3ccn(C)n3)n2-c2c(F)cccc2F)nc1 [Example 226.0, (2S,3R)-N-(4-(2,6-difluorophenyl)-5-(1-methyl-1H-pyrazol-3-yl)-4H-1,2,4-triazol-3-yl)-3-(5-methyl-2-pyrimidinyl)-2-butanesulfonamide], the EC50 is reported as 11 nM.

Work on CCS(=O)(=O)Nc1nnc(-c2ccn(C)n2)n1-c1c(OC)cccc1OC [Example 267.0, N-(4-(2,6-dimethoxyphenyl)-5-(1-methyl-1H-pyrazol-3-yl)-4H-1,2,4-triazol-3-yl)ethanesulfonamide] yielded an EC50 of 82 nM.

O=S(=O)(CCc1ccccc1)Nc1nnc(-c2ccc(F)s2)n1-c1ccccc1OC(F)F [Example 246.0, N-(4-(2-(difluoromethoxy)phenyl)-5-(5-fluoro-2-thiophenyl)-4H-1,2,4-triazol-3-yl)-2-phenylethanesulfonamide] was tested, and the EC50 was 39 nM.

In the case of COc1ccc(S(C)(=O)=O)cc1-n1c(NS(=O)(=O)CCc2ccc(Cl)cc2)nnc1-c1cccs1 [Example 312.0, 2-(4-Chlorophenyl)-N-(4-(2-methoxy-5-(methylsulfonyl)phenyl)-5-(thiophen-2-yl)-4H-1,2,4-triazol-3-yl)ethanesulfonamide], the EC50 is reported as 76 nM.

In the case of COc1cccc(OC)c1-n1c(NS(=O)(=O)[C@@H](C)[C@H](OC)c2ncc(C)cn2)nnc1-c1cc(C)[nH]n1 [Example 333.0, (1R,2S)-N-(4-(2,6-dimethoxyphenyl)-5-(5-methyl-1H-pyrazol-3-yl)-4H-1,2,4-triazol-3-yl)-1-methoxy-1-(5-methyl-2-pyrimidinyl)-2-propanesulfonamide], the EC50 is reported as 1.5 nM.

COc1ncnc(OC)c1-n1c(NS(=O)(=O)[C@@H](C)[C@H](C)c2ncc(F)cn2)nnc1-c1cnn2c1CCC2 [Example 480.0, (2S,3R)-N-(5-(5,6-dihydro-4H-pyrrolo[1,2-b]pyrazol-3-yl)-4-(4,6-dimethoxypyrimidin-5-yl)-4H-1,2,4-triazol-3-yl)-3-(5-fluoropyrimidin-2-yl)butane-2-sulfonamide] gave an EC50 of 4.4 nM.

In the case of CCO[C@H](c1ncc(C)cn1)[C@H](C)S(=O)(=O)Nc1nnc(-c2cc3n(n2)CCC3)n1-c1c(OC)cccc1OC [Example 217.0, (1R,2S)-N-(5-(5,6-dihydro-4H-pyrrolo[1,2-b]pyrazol-2-yl)-4-(2,6-dimethoxyphenyl)-4H-1,2,4-triazol-3-yl)-1-ethoxy-1-(5-methyl-2-pyrimidinyl)-2-propanesulfonamide], the EC50 is reported as 2.8 nM.

For COc1cccc(OC)c1-n1c(NS(=O)(=O)[C@@H](C)[C@H](OC)c2ncc(Cl)cn2)nnc1-c1cc2n(n1)CCC2 [Example 210.0, (1R,2S)-1-(5-chloro-2-pyrimidinyl)-N-(5-(5,6-dihydro-4H-pyrrolo[1,2-b]pyrazol-2-yl)-4-(2,6-dimethoxyphenyl)-4H-1,2,4-triazol-3-yl)-1-methoxy-2-propanesulfonamide], the EC50 was 0.83 nM.

For COc1cccc(OC)c1-n1c(NS(=O)(=O)[C@@H](C)[C@H](OC)c2ncc(C)cn2)nnc1-c1ccc(C)s1 [Example 332.0, (1R,2S)-N-(4-(2,6-dimethoxyphenyl)-5-(5-methyl-2-thiophenyl)-4H-1,2,4-triazol-3-yl)-1-methoxy-1-(5-methyl-2-pyrimidinyl)-2-propanesulfonamide], the EC50 was 0.37 nM.

COc1cccc(OC)c1-n1c(NS(=O)(=O)C[C@H](OC)c2ccc(Cl)cn2)nnc1-c1ccn(C)n1 (single isomer, unassigned) [Example 377.0, (R)-2-(5-Chloropyridin-2-yl)-N-(4-(2,6-dimethoxyphenyl)-5-(1-methyl-1H-pyrazol-3-yl)-4H-1,2,4-triazol-3-yl)-2-methoxyethanesulfonamide or (S)-2-(5-chloropyridin-2-yl)-N-(4-(2,6-dimethoxyphenyl)-5-(1-methyl-1H-pyrazol-3-yl)-4H-1,2,4-triazol-3-yl)-2-methoxyethanesulfonamide] showed an EC50 of 0.6 nM.

For COc1ccc([C@@H](C)[C@H](C)S(=O)(=O)Nc2nnc(-c3ccn(C)n3)n2-c2c(OC)cccc2OC)nc1 [Example 459.0, (2S,3R)-N-(4-(2,6-dimethoxyphenyl)-5-(1-methyl-1H-pyrazol-3-yl)-4H-1,2,4-triazol-3-yl)-3-(5-methoxy-2-pyridinyl)-2-butanesulfonamide], the EC50 was 0.33 nM.

C[C@H](c1ncc(Cl)cn1)[C@H](C)S(=O)(=O)Nc1nnc(-c2ccn(C)n2)n1-c1c(F)cccc1F [Example 228.0, (2S,3R)-3-(5-chloro-2-pyrimidinyl)-N-(4-(2,6-difluorophenyl)-5-(1-methyl-1H-pyrazol-3-yl)-4H-1,2,4-triazol-3-yl)-2-butanesulfonamide] was tested, and the EC50 was 4 nM.

With CCn1ccc(-c2nnc(NS(=O)(=O)[C@@H](C)[C@@](O)(c3ncc(C)cn3)C(F)(F)F)n2-c2c(OC)cccc2OC)n1 [Example 390.0, (2S,3R)-N-(4-(2,6-Dimethoxyphenyl)-5-(1-ethyl-1H-pyrazol-3-yl)-4H-1,2,4-triazol-3-yl)-4,4,4-trifluoro-3-hydroxy-3-(5-methylpyrimidin-2-yl)butane-2-sulfonamide and (2S,3S)-N-(4-(2,6-dimethoxyphenyl)-5-(1-ethyl-H-pyrazol-3-yl)-4H-1,2,4-triazol-3-yl)-4,4,4-trifluoro-3-hydroxy-3-(5-methylpyrimidin-2-yl)butane-2-sulfonamide] the EC50 was 73 nM.

Work on Cn1ccc(-c2nnc(NS(=O)(=O)[C@@H]3C[C@H](O)CN(c4ncc(F)cn4)C3)n2-c2c(F)cccc2F)n1 (single isomer, unassigned) [Example 299.0, (3R,5S)-N-(4-(2,6-difluorophenyl)-5-(1-methyl-1H-pyrazol-3-yl)-4H-1,2,4-triazol-3-yl)-1-(5-fluoro-2-pyrimidinyl)-5-hydroxy-3-piperidinesulfonamide or (3S,5R)-N-(4-(2,6-difluorophenyl)-5-(1-methyl-1H-pyrazol-3-yl)-4H-1,2,4-triazol-3-yl)-1-(5-fluoro-2-pyrimidinyl)-5-hydroxy-3-piperidinesulfonamide] yielded an EC50 of 520 nM.

With COc1cccc(OC)c1-n1c(NS(=O)(=O)[C@@H](C)[C@H](O)c2ncc(C)cn2)nnc1-c1cc2n(n1)CCC2 [Example 220.0, (1R,2S)-N-(5-(5,6-dihydro-4H-pyrrolo[1,2-b]pyrazol-2-yl)-4-(2,6-dimethoxyphenyl)-4H-1,2,4-triazol-3-yl)-1-hydroxy-1-(5-methyl-2-pyrimidinyl)-2-propanesulfonamide] the EC50 was 6.6 nM.

CNC(=O)n1ccc(-c2nnc(NS(=O)(=O)[C@@H](C)Cc3ncc(F)cn3)n2-c2c(OC)cccc2OC)n1 (single isomer, unassigned) [Example 74.0] showed an EC50 of 22 nM.

COCC(COC)n1c(NS(=O)(=O)[C@@H](C)[C@H](C)c2ncc(Cl)cn2)nnc1-c1nn(C)c2ccccc12 [Example 449.0, (2S,3R)-3-(5-chloropyrimidin-2-yl)-N-(4-(1,3-dimethoxypropan-2-yl)-5-(1-methyl-1H-indazol-3-yl)-4H-1,2,4-triazol-3-yl)butane-2-sulfonamide] was tested, and the EC50 was 13 nM.

For COc1cnc([C@@H](OC)[C@H](C)S(=O)(=O)Nc2nnc(-c3ccn(C)n3)n2-c2c(OC)cccc2OC)cn1 (single isomer, unassigned) [Example 309.0, (1R,2S)-N-(4-(2,6-dimethoxyphenyl)-5-(1-methyl-1H-pyrazol-3-yl)-4H-1,2,4-triazol-3-yl)-1-methoxy-1-(5-methoxy-2-pyrazinyl)-2-propanesulfonamide or (1S,2R)-N-(4-(2,6-dimethoxyphenyl)-5-(1-methyl-1H-pyrazol-3-yl)-4H-1,2,4-triazol-3-yl)-1-methoxy-1-(5-methoxy-2-pyrazinyl)-2-propanesulfonamide], the EC50 was 34 nM.

For COc1ccc(C#N)cc1-n1c(NS(=O)(=O)CCc2ccc(Cl)cc2)nnc1-c1cccs1 [Example 247.0, 2-(4-chlorophenyl)-N-(4-(5-cyano-2-methoxyphenyl)-5-(thiophen-2-yl)-4H-1,2,4-triazol-3-yl)ethanesulfonamide], the EC50 was 166 nM.

Compound COc1cccc(OC)c1-n1c(NS(=O)(=O)[C@H](C)[C@H](O)c2ncc(C)cn2)nnc1-c1nc(C)cs1 (single isomer, unassigned) [Example 317.0, (1R,2R)-N-(4-(2,6-dimethoxyphenyl)-5-(4-methylthiazol-2-yl)-4H-1,2,4-triazol-3-yl)-1-hydroxy-1-(5-methylpyrimidin-2-yl)propane-2-sulfonamide or (1S,2S)-N-(4-(2,6-dimethoxyphenyl)-5-(4-methylthiazol-2-yl)-4H-1,2,4-triazol-3-yl)-1-hydroxy-1-(5-methylpyrimidin-2-yl)propane-2-sulfonamide] has an EC50 of 6.6 nM.
